# Experimental data taken from US9365851B2, “Spalt-like transcription factor 4 (SALL4) and uses thereof” (National University of Singapore, priority 2011, dated 2016).
# “Also recorded” adds a separate entry of the source.
# Legend:
# SNU-387 cells = assay: Cell viability assay (MTT/MTS); type: cell-based, human; conditions: for cell viability / number of viable cells: SNU-387 (low/no SALL4), 72 h
# Procedure: Cell viability was determined 72 hours after peptide treatments. Absorbance at 490 nm is directly correlated to cell viability. Wild type functional SALL4 peptide (wt), mutant non-functional SALL4 peptide (Mut.), trichostatin A (TSA), scrambled control peptide (Scr.), wild type peptide+PTEN inhibitor SF1670 (wt+Inh.) were given to the cells at the indicated concentration. PTEN inhibitor concentration was 400 nM. (31C, 31D) Western blot analyses of the effects of peptides on PTEN, AKT, and pAKT expression on SNU-398 (31C) and SNU-387 (31D) cells 72 hours following peptide treatments. 20 μM of wt or Scr. peptide or 100 nM of TSA was used. PTEN inhibitor concentration was 400 nM. (31E) Representative images show NOD/SCID mice transplanted with Scr peptide- and wt peptide-treated SNU-398 cells (left) and the dissected subcutaneous tumors (right). Arrow indicates subcutaneous tumor. (31F) Growth curve of subcutaneous tumors (left panel) and tumor weight of tumors dissected at day 26 post-transplantation (right panel). Results are mean±s.d. n=5; * P<0.05. (31G) Representative images show NOD/SCID mice transplanted with 3 million SNU-398 cells at the left flank and treated intraperitoneally for five consecutive days with 56 mg/kg body weight TAT-Mut. peptide or 60 mg/kg body weight wt peptide (top panel) and the dissected subcutaneous tumors (bottom). (31H) Tumor weight of tumors dissected at day 18 post-transplantation and post-treatment of mice treated intraperitoneally with TAT fusion peptides as described in 5 g. Results are mean±s.d. n=5; * P<0.05.
# Cell viability assay (MTT) (Invitrogen) was performed according to the manufacturer's instructions. Briefly—10000 cells were seeded in 100 ul medium in 96 well plates. The next day cells were treated as indicated on the figures. At the designated time after the treatment 20 ul of 5 mg/ml MTT solution was added to each well. After 3.5 h incubation at 37 C the medium was removed and the reaction was terminated with a solution of 4 mM HCl, 0.1% Nondet P-40 (NP40) all in isopropanol in dark on orbital shaker for […]. at room temperature. The absorbance was read at 590 nm with a reference filter of 620 nm in Spectromax M3 (ABI) spectrophotometer.
# 7000 cells were seeded in each wells of a microtiter plate in 100 μL of complete medium. Cells from each treatment were seeded in duplicate. Controls using the same medium without cells were set up in parallel. At various time points, 317 μg/mL of 3-(4,5-dimethylthiazol-2-yl)-5-(3-carboxymethoxyphenyl)-2-(4-sulfophenyl)-2H-tetrazolium (CellTiter96® AQueous One Solution Cell Proliferation Assay, Promega) was added to each well. After four hours incubation of the tetrazolium salt, absorbance at 490 nm was read by a microplate reader.
# PTEN/AKT pathway = PTEN/AKT pathway expression in THP1 cells (Western blot); type: cell-based
# Description: To further evaluate the specificity of the SALL4/PTEN pathway, next investigated was whether wild type peptide treatment could affect the expression of PTEN and its downstream target, phosphorylated AKT (pAKT).
# c-Myc = c-Myc protein expression in SNU-398 cells; type: cell-based, human
# Procedure: Also tested was whether wt peptide could affect genes that were known to be activated by SALL4, such as c-Myc. SNU-398 cells treated with wt or Scr peptide were evaluated for c-Myc protein expression. No change was observed among SNU-398 cells that were not treated or treated with either wt, Scr or TSA. When combined, the observation on the biological effects of the peptide treatment and the expression of Pten/Akt pathway in these cells, it was noticed that the wt peptide and its role in cell death promotion was correlated to its effect on the expression levels of Pten/Akt.
Compound,"cell viability upon SALL4 knockdown (SNU-387 cells; SNU-387, MTS)",PTEN expression (PTEN/AKT pathway),pAKT on Ser 473 (PTEN/AKT pathway),c-Myc protein expression (c-Myc),cell viability / number of viable cells (SNU-387 cells),cell viability / number of viable cells (SNU-387 cells; listed as SALL4 peptide),cell viability / number of viable cells (SNU-387 cells; listed as wt)
"CTATTTAGCCAAAGGCAAA (short hairpin RNA, chemistry and delivery not given here, further chemistry not given here) [E5 shRNA]",number of viable cells was similar,,,,,,
"Scr peptide: same 12 amino acids as the wt peptide, but in a scrambled sequence; negative control (SRMRQKIHPKIQ) [reference compound]",,No effect,No effect,No change,no change in cell viability,,
"CC(/C=C/C(=O)NO)=C\[C@@H](C)C(=O)c1ccc(N(C)C)cc1 [TSA, Trichostatin A, reference compound]",,increased PTEN expression,significantly reduced,No change,,,
"H-MSRRKQAKPQHI-OH [wt peptide, MSRRKQAKPQHI]",,increased PTEN expression,significantly reduced,No change,had no effects; also recorded: did not affect the cell viability,had no effect,no change in cell viability
